{"source": "patent US20230124548A1", "about": "“Therapeutic Methods And Uses Thereof” (Eustralis Pharmaceuticals Limited (Trading As Pressura …, priority 2019, published 2023)", "key": {"[1]": {"assay": "Solubility assessment and pH of solution", "type": "physicochemical", "experimental": "Ethanol was also assessed as part of this study."}, "central NK1 receptors": {"molecular_target": "T1, central NK1 receptors (Homo sapiens, UniProt P25103)", "T1 construct": "from tissue; host or cells: central nervous system of healthy human volunteers (in vivo)", "T1 sequence (P25103 whole entry)": "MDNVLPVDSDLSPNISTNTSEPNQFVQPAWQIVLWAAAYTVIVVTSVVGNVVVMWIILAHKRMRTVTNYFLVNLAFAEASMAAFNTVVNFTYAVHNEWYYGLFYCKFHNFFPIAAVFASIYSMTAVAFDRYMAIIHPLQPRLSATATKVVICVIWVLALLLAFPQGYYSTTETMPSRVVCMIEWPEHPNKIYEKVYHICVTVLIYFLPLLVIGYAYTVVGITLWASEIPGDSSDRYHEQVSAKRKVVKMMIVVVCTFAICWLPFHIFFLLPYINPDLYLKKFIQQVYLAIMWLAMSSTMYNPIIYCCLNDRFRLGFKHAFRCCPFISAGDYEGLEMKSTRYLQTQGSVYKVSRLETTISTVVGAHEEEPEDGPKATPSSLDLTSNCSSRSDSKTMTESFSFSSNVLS", "assay": "Phase 1 apomorphine challenge study: blocking of apomorphine induced emesis in healthy volunteers", "type": "in vivo", "details": "for Average Number of Retches or Vomits / Number of Retches (Events) / Number of Retches (Subjects) / Number of Vomits (Subjects) / Number of Vomits (Events): N = 5", "experimental": "(§1) A pharmacodynamic study to assess functional blocking of central NK1 receptors was performed in healthy volunteers. This was done by testing the efficacy of the compound in blocking apomorphine induced emesis. This study indicates the need for a minimum concentration of the initial peak at infusion to obtain efficacious levels, rather than minimal plasma-levels at the time of apomorphine challenge.\n(§2) In the phase 1 apomorphine challenge study the ability of the compound to block emesis induced by apomorphine was tested in healthy volunteers. […] At neither time point did subjects require rescue medication to prevent uncontrolled vomiting. On the other hand, when the apomorphine challenge was performed 2 hours after a 30 mg dose (n=5), an average of 4.2 retches and vomits were observed, which would have been even higher had two of five subjects not received rescue medication to block the apomorphine effects. Importantly the plasma concentration of the Compound 2 hours after the 30 mg dose was 60% higher than the plasma concentration 20 hours after the 90 mg dose."}, "[2]": {"assay": "Intracranial pressure (ICP) curves in clinical trial patients, slow 2-hour infusion", "type": "in vivo, human", "details": "two patients, slow infusion over 2 hours", "experimental": "In order to avoid any potential safety issues, the infusion in human clinic trials was slowed down to 2 hours to generate the same AUC but a lower Cmax.\nHowever two patients were treated in a clinical trial, using a slow infusion rate over a timespan of 2 hours."}, "[3]": {"assay": "Plasma concentrations in the apomorphine challenge study", "type": "in vivo, human", "experimental": "as §1, §2"}, "[4]": {"details": "30 mg, apomorphine challenge 2 h after dose"}, "[5]": {"details": "90 mg, apomorphine challenge 2 h after dose"}, "[6]": {"details": "90 mg, apomorphine challenge 20 h after dose"}}, "note": "Like-named read-outs stand apart in the source and are kept apart here."}
{"smiles": "Cc1ccccc1-c1cc(N2CCN(C)CC2)ncc1C(=O)N(C)Cc1cc(C(F)(F)F)cc(C(F)(F)F)c1", "note": "[Compound of Formula (I) 2HCl (R1 = CH3)]", "values": [{"measurement": "Solubility in Water, Result", "setting": "[1]; 5 mg/mL (50 mg in 10 mL water)", "result": "Very soluble"}, {"measurement": "pH of solution", "setting": "[1]; 5 mg/mL in water", "result": 2.39}, {"measurement": "Solubility in Water, Result", "setting": "[1]; 10 mg/mL (100 mg in 10 mL water)", "result": "Very soluble"}, {"measurement": "pH of solution", "setting": "[1]; 10 mg/mL in water", "result": 2.14}, {"measurement": "Solubility in Water, Result", "setting": "[1]; 15 mg/mL (150 mg in 10 mL water)", "result": "Soluble"}, {"measurement": "pH of solution", "setting": "[1]; 15 mg/mL in water", "result": 2.02}, {"measurement": "Solubility in Water, Result", "setting": "[1]; 20 mg/mL (200 mg in 10 mL water)", "result": "Soluble"}, {"measurement": "pH of solution", "setting": "[1]; 20 mg/mL in water", "result": 1.87}, {"measurement": "Solubility in Water, Result", "setting": "[1]; 25 mg/mL (250 mg in 10 mL water)", "result": "Soluble"}, {"measurement": "pH of solution", "setting": "[1]; 25 mg/mL in water", "result": 1.81}, {"measurement": "Solubility in Water, Result", "setting": "[1]; 30 mg/mL (300 mg in 10 mL water)", "result": "Soluble"}, {"measurement": "pH of solution", "setting": "[1]; 30 mg/mL in water", "result": 1.75}, {"measurement": "Solubility in Water, Result", "setting": "[1]; 35 mg/mL (350 mg in 10 mL water)", "result": "Soluble"}, {"measurement": "pH of solution", "setting": "[1]; 35 mg/mL in water", "result": 1.72}, {"measurement": "Solubility in Water, Result", "setting": "[1]; 40 mg/mL (400 mg in 10 mL water)", "result": "Soluble"}, {"measurement": "pH of solution", "setting": "[1]; 40 mg/mL in water", "result": 1.66}, {"measurement": "Solubility in Water, Result", "setting": "[1]; 45 mg/mL (450 mg in 10 mL water)", "result": "Soluble"}, {"measurement": "pH of solution", "setting": "[1]; 45 mg/mL in water", "result": 1.54}, {"measurement": "Solubility in Water, Result", "setting": "[1]; 50 mg/mL (500 mg in 10 mL water)", "result": "Soluble"}, {"measurement": "pH of solution", "setting": "[1]; 50 mg/mL in water", "result": 1.52}, {"measurement": "Solubility", "setting": "[1]; 50 mg/mL, stated after 'Ethanol was also assessed', solvent not explicit, golden yellow colour", "result": "freely soluble"}, {"measurement": "Average Number of Retches or Vomits", "setting": "central NK1 receptors; [4]", "result": 4.2}, {"measurement": "Number of Retches (Events)", "setting": "central NK1 receptors; [4]", "result": 9}, {"measurement": "Number of Retches (Subjects)", "setting": "central NK1 receptors; [4]", "result": 2}, {"measurement": "Number of Vomits (Subjects)", "setting": "central NK1 receptors; [4]", "result": 3}, {"measurement": "Number of Vomits (Events)", "setting": "central NK1 receptors; 30 mg, apomorphine challenge 2 h after dose, 2 of 5 subjects rescued", "result": "> 12"}, {"measurement": "Average Number of Retches or Vomits", "setting": "central NK1 receptors; [5]", "result": 1.4}, {"measurement": "Number of Retches (Events)", "setting": "central NK1 receptors; [5]", "result": 5}, {"measurement": "Number of Retches (Subjects)", "setting": "central NK1 receptors; [5]", "result": 2}, {"measurement": "Number of Vomits (Events)", "setting": "central NK1 receptors; [5]", "result": "2/2"}, {"measurement": "Number of Vomits (Subjects)", "setting": "central NK1 receptors; [5]", "result": "2/2"}, {"measurement": "Average Number of Retches or Vomits", "setting": "central NK1 receptors; [6]", "result": 2.6}, {"measurement": "Number of Retches (Events)", "setting": "central NK1 receptors; [6]", "result": 12}, {"measurement": "Number of Retches (Subjects)", "setting": "central NK1 receptors; [6]", "result": 4}, {"measurement": "Number of Vomits (Events)", "setting": "central NK1 receptors; [6]", "result": "1/1"}, {"measurement": "Number of Vomits (Subjects)", "setting": "central NK1 receptors; [6]", "result": "1/1"}, {"measurement": "duration of reduction of retches/vomits once NK1 blockade is achieved", "setting": "central NK1 receptors; after peak level of at least 1000-1300 ng/ml", "result": "≥ 20", "unit": "h"}, {"measurement": "efficacy on ICP (ICP curves)", "setting": "[2]", "result": "no or minimal efficacy"}, {"measurement": "plasma concentration 2 hours after the 30 mg dose, higher than plasma concentration 20 hours after the 90 mg dose", "setting": "[3]; 30 mg/2 h versus 90 mg/20 h", "result": 60, "unit": "%"}, {"measurement": "Cmax", "setting": "[3]; human, plasma, intravenous, 30 mg, apomorphine challenge 2 h after dose, N = 5, read-out: Cmax at end of infusion", "result": 0.252, "unit": "µg/mL"}, {"measurement": "Cmax", "setting": "[3]; human, plasma, intravenous, 90 mg, apomorphine challenge 2 h after dose, N = 5, read-out: Cmax at end of infusion", "result": 1.04, "unit": "µg/mL"}, {"measurement": "Cmax", "setting": "[3]; human, plasma, intravenous, 90 mg, apomorphine challenge 20 h after dose, N = 5, read-out: Cmax at end of infusion", "result": 1.27, "unit": "µg/mL"}, {"measurement": "Cmax", "setting": "[3]; human, plasma, intravenous, 90 mg, healthy volunteers, apomorphine challenge, read-out: minimum initial peak level (Cmax) at infusion to obtain efficacious levels / central NK1 blockade", "result": "1 to 1.3", "unit": "µg/mL"}, {"measurement": "concentration at 2 h", "setting": "[3]; human, plasma, intravenous, 30 mg, apomorphine challenge 2 h after dose, N = 5, read-out: Conc. at challenge", "result": 0.112, "unit": "µg/mL"}, {"measurement": "concentration at 2 h", "setting": "[3]; human, plasma, intravenous, 90 mg, apomorphine challenge 2 h after dose, N = 5, read-out: Conc. at challenge", "result": 0.356, "unit": "µg/mL"}, {"measurement": "concentration at 20 h", "setting": "[3]; human, plasma, intravenous, 90 mg, apomorphine challenge 20 h after dose, N = 5, read-out: Conc. at challenge", "result": 0.069, "unit": "µg/mL"}]}
